# Patent US3943256A (priority 1974, dated 1976)
# Entries after “also recorded” stand apart in the source; their conditions may differ. Like-named read-outs stand apart in the source and are kept apart here.
# Tests used:
# mouse [1] = tested on: mouse; set-up: species or system male CF-1 mice; details: in vivo
# dogs [2] = details: dog, in vivo
# mouse [3] = tested on: mouse; set-up: species or system male CF-1 mice; unit not given here; details: in vivo
# mouse [4] = details: in vivo; cited from earlier work
# [5] = in vivo; cited from earlier work
# dogs [6] = details: dog, in vivo; cited from earlier work
# mouse [7] = details: in vivo
# [8] = tested on: flurothyl induced convulsions; details: in vivo; cited from earlier work
smiles,measurement,setting,value
"FC(F)OCC(F)(F)C(F)F [I, Difluoromethyl 2,2,3,3-tetrafluoropropyl ether]","MOUSE […]., VOL. %",mouse [1],1.0 VOL. %
same,[…] (type of convulsions),mouse [1],CLONIC CONVULSIONS
"FC(F)OCC(F)(F)C(F)(F)F [II, Difluoromethyl 2,2,3,3,3-pentafluoropropyl ether]","MOUSE […]., VOL. %",mouse [1],1.4 VOL. %
same,[…] (type of convulsions),mouse [1],"CLONIC AND TONIC CONVULSIONS, CATALEPSY"
"FC(F)OC(F)(F)C(F)C(F)(F)F (stereo not drawn) [III, Difluoromethyl 1,1,2,3,3,3-hexafluoropropyl ether]","MOUSE […]., VOL. %",mouse [1],2.0 VOL. %
"FC(F)OC(F)(C(F)F)C(F)F [IV, Difluoromethyl 1,1,2,3,3-pentafluoro-2-propyl ether]",convulsant effect in dogs,dogs [2],OPISTHOTONOID
same,"MOUSE […]., VOL. %",mouse [1],1.2 VOL. %
same,[…] (type of convulsions),mouse [1],C[…] SEDATION
FC(F)OC(F)C(F)(F)C(F)(F)F (stereo not drawn) [IX],MOUSE AC50,mouse [3],4.3
"FCOCC(F)(F)C(F)(F)F [V, Fluoromehtyl 2,2,3,3,3-pentafluoropropyl ether]","MOUSE […]., VOL. %",mouse [1],1.5 VOL. %
same,[…] (type of convulsions),mouse [1],METRAZOLE-LIKE CONVULSIONS
"FC(F)(F)COCC(F)(F)F [VII, flurothyl]","MOUSE […]., VOL. %",mouse [4],≤ 0.25 VOL. %
same,[…] (type of convulsions),mouse [1],CLONIC AND TONIC CONVULSIONS
same,time to clonic and tonic convulsions,mouse [1],30 s
FC(F)OC(F)C(F)(F)C(F)F (stereo not drawn) [VIII],MOUSE AC50,mouse [3],0.61
same,convulsant effect in dogs,dogs [2],NON[…] DOGS
FC(F)C(F)(F)COC(F)(F)F [VI],convulsions and death,[5],VIOLENT C[…] DEATH
same,time to violent convulsions and death,[5],30 to 120 s
same,"MOUSE […]., VOL. %",mouse [1],≤ 0.5 VOL. %
FCOC(F)(F)C(F)C(F)(F)F (stereo not drawn) [XIII],MOUSE AC50,mouse [3],2.1
FC(F)OC(C(F)F)C(F)F [XII],MOUSE AC50,mouse [3],0.64
FCOC(F)(C(F)F)C(F)(F)F (stereo not drawn) [XIV],MOUSE AC50,mouse [3],2.5
same,convulsant effect in dogs,dogs [2],NON[…] DOGS
"COCC(F)(F)C(F)(F)F [XIX, methyl 2,2,3,3,3-pentafluoropropyl ether]",MOUSE AC50,mouse [3],11
same,effect in dogs,dogs [6],EXTENSOR RIGIDITY OF HIND LEGS; also recorded: TREMORS
FC(F)OC(C(F)F)C(F)(F)F (stereo not drawn) [XI],MOUSE AC50,mouse [3],0.84
"COC(F)(F)C(F)C(F)(F)F (stereo not drawn) [XVIII, methyl 1,1,2,3,3,3-hexafluoropropyl ether]",MOUSE AC50,mouse [3],3.9
COC(F)(F)C(F)(F)C(F)(F)F [XVII],cause of death,mouse [7],DEATH DUE TO ANOXIA
FCOC(C(F)F)C(F)(F)F (stereo not drawn) [XVI],MOUSE AC50,mouse [3],0.84
FCOC(C(F)(F)F)C(F)(F)F [XV],MOUSE AC50,mouse [3],1.4
same,convulsant effect in dogs,dogs [2],NON[…] DOGS
COC(C(F)F)C(F)F [XXIII],MOUSE AC50,mouse [3],1.4
COC(C(F)F)C(F)(F)F (stereo not drawn) [XXII],MOUSE AC50,mouse [3],1.5
COC(C(F)(F)F)C(F)(F)F [XXI],antagonism to flurothyl induced convulsions,[8],ANTAGONIST
same,MOUSE AC50,mouse [3],2.2
same,convulsant effect in dogs,dogs [2],NON[…] DOGS
COCC(F)(F)C(F)F [XX],MOUSE AC50,mouse [3],2.5
FC(F)OC(C(F)(F)F)C(F)(F)F [X],MOUSE AC50,mouse [3],2.5
same,convulsant effect in dogs,dogs [2],NON[…] DOGS
